Source: PubChem BioAssay (NCI)
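Method: 48-hour compound exposure of cells in 96-well plates, five concentrations, linear interpolation of endpoints. At the TGI there is no net growth.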

Columns and labels:
Test in all cases: inhibition of tumour cell growth, NCI panel, 48 h
[1] = test system: CAKI-1 renal
[2] = test system: UACC-62 melanoma
[3] = test system: A498 renal
[4] = test system: MALME-3M melanoma
[5] = test system: A549 NSCLC
[6] = test system: EKVX NSCLC
[7] = test system: SW-620 colon
[8] = test system: NCI/ADR-RES ovarian
[9] = test system: PC-3 prostate
[10] = test system: SN12C renal

Row | Structure (SMILES) | TGI [1] [µM] | TGI [2] [µM] | TGI [3] [µM] | TGI [4] [µM] | TGI [5] [µM] | TGI [6] [µM] | TGI [7] [µM] | TGI [8] [µM] | TGI [9] [µM] | TGI [10] [µM]
1 | Cc1ccccc1OC(C)C(=O)NN1C(=O)CC(=O)N(c2ccccc2)C1=S (stereo not given) | > 100 | > 100 | > 100 | > 100 | > 100 | > 100 | > 100 | > 100 | > 100 | > 100
2 | NC(=O)Cc1nc2c(=O)[nH]cnc2n1C1OC(CO)C(O)C1O (stereo not given) | > 100 | > 100 | > 100 | > 100 | > 100 | > 100 | > 100 | > 100 | > 100 | > 100
3 | CC1CC/C(=C\c2ccc(Cl)cc2)c2nc(N)c(C#N)c(-c3ccc(Cl)cc3)c21 (stereo not given) | 45.5 | > 100 | 72.4 | 62 | > 100 | > 100 | > 100 | > 100 | > 100 | > 100
4 | NC(=O)CO/N=C1/C(c2c(O)[nH]c3ccccc23)=Nc2ccccc21 | > 100 | > 100 | > 100 | > 100 | > 100 | > 100 | > 100 | > 100 | > 100 | > 100
5 | CO[C@H]1C[C@H](O[C@H]2CC[C@]3(C=O)[C@H]4CC[C@]5(C)[C@@H](C6=CC(=O)OC6)CC[C@]5(O)[C@@H]4CC[C@]3(O)C2)O[C@H](C)[C@H]1O | 0.0947 | 1.27 | 1.34 | 2.86 | 0.198 | 0.79 | 2.71 | 2.3 | 1.04 | 0.201
6 | CC(C)OC1OC(CO)C(O)CC1n1cc(F)c(=O)[nH]c1=O (stereo not given) | > 100 | > 100 | > 100 | > 100 | > 100 | > 100 | > 100 | > 100 | > 100 | > 100
7 | NCCC1CN(C(=O)OCc2ccccc2)c2ccccc21 (stereo not given) | > 50.7 | 33.2 | > 52.2 | 29.1 | > 53.6 | 84.4 | 25.4 | 36.7 | > 36.2 | 27.3
8 | CCOC(=O)c1cnccc1CC1(C#N)c2ccccc2C=CN1C(=O)c1ccccc1 (stereo not given) | > 100 | 80.9 | > 100 | 26.5 | > 100 | > 100 | > 100 | > 100 | > 100 | 97.3
9 | N/C(=N\Nc1ccc(S(N)(=O)=O)cc1)c1cnccn1 | > 100 | > 100 | > 100 | > 100 | > 100 | > 100 | > 100 | > 100 | > 100 | > 100
10 | O=C1c2ccccc2-c2[nH]c3cn[nH]c(=O)c3c21 | > 100 | > 100 | > 100 | > 100 | > 100 | > 100 | > 100 | > 100 | > 100 | > 100
11 | Cn1c2ccccc2n2c3ncccc3c(=S)c(C#N)c12 | > 100 | > 100 | > 100 | > 100 | > 100 | > 100 | > 100 | > 100 | > 100 | > 100
12 | N#Cc1nc(C#N)n(C(=O)c2ccccc2)c1NC(=O)c1ccccc1 | > 100 | > 100 | > 100 | > 100 | > 100 | > 100 | > 100 | > 100 | > 100 | > 100
13 | CN1C(=O)C(O)CC1c1cccc(C(F)(F)F)c1 (stereo not given) | > 100 | > 100 | > 100 | > 100 | > 100 | > 100 | > 100 | > 100 | > 100 | > 100
14 | CCCNc1ncnc2[nH]ncc12 | > 100 | > 100 | > 100 | > 100 | > 100 | > 100 | > 100 | > 100 | > 100 | > 100
15 | CCOP(=O)(OCC)/C(C#N)=C/c1cccn1Cc1ccccc1 | > 100 | 55 | > 100 | > 100 | > 100 | > 100 | 75.2 | > 100 | > 100 | > 100
16 | COc1ccc(-c2cc(C(O)C3CCCCN3)c3ccccc3n2)cc1 (stereo not given) | 18.4 | 12 | 25.4 | 28.9 | 27.8 | 20.2 | 25.2 | 39 | 16.9 | 23.7
17 | NCCOCC(N)C(=O)O (stereo not given) | > 100 | > 100 | > 100 | > 100 | > 100 | > 100 | > 100 | > 100 | > 100 | > 100
18 | O=c1cc(NCc2ccncc2)[nH]c(=O)[nH]1 | > 100 | > 100 | > 100 | > 100 | > 100 | > 100 | > 100 | > 100 | > 100 | > 100
19 | Nc1ncnc2c1ncn2Cc1cccc(CCl)c1 | 37 | 25.8 | 30 | 37.7 | 91.4 | 37.1 | 29.9 | 50.8 | 35.5 | 29.3
